Test results from patent US8022206B2 (OSI Pharmaceuticals, LLC, priority 2008, dated 2011).

Legend:
[1] = biological target: RON (human) (Homo sapiens, UniProt Q04912); assay: RON (human) AlphaScreen kinase assay, Km of ATP; format: biochemical; conditions: AlphaScreen, Km of ATP; read-out: RON biochemical IC50
In short: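 Detection used PT66 AlphaScreen beads added in Tris pH 7.5/NaCl/EDTA/BSA buffer, read after 1 h incubation. Vehicle-only DMSO wells served as controls.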

[2] = biological target: MET (human) (Homo sapiens, UniProt P08581); assay: MET (human) AlphaScreen kinase assay, Km of ATP; format: biochemical; conditions: AlphaScreen, Km of ATP; read-out: Met biochemical IC50
In short: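 Human MET at lot-optimised concentration in 50 mM Tris pH 7.4 buffer with 1 mM DTT, compound at 1% DMSO final; enzyme starts the reaction, 60 min at RT.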

Chain of MET (human) (P08581 25-1390): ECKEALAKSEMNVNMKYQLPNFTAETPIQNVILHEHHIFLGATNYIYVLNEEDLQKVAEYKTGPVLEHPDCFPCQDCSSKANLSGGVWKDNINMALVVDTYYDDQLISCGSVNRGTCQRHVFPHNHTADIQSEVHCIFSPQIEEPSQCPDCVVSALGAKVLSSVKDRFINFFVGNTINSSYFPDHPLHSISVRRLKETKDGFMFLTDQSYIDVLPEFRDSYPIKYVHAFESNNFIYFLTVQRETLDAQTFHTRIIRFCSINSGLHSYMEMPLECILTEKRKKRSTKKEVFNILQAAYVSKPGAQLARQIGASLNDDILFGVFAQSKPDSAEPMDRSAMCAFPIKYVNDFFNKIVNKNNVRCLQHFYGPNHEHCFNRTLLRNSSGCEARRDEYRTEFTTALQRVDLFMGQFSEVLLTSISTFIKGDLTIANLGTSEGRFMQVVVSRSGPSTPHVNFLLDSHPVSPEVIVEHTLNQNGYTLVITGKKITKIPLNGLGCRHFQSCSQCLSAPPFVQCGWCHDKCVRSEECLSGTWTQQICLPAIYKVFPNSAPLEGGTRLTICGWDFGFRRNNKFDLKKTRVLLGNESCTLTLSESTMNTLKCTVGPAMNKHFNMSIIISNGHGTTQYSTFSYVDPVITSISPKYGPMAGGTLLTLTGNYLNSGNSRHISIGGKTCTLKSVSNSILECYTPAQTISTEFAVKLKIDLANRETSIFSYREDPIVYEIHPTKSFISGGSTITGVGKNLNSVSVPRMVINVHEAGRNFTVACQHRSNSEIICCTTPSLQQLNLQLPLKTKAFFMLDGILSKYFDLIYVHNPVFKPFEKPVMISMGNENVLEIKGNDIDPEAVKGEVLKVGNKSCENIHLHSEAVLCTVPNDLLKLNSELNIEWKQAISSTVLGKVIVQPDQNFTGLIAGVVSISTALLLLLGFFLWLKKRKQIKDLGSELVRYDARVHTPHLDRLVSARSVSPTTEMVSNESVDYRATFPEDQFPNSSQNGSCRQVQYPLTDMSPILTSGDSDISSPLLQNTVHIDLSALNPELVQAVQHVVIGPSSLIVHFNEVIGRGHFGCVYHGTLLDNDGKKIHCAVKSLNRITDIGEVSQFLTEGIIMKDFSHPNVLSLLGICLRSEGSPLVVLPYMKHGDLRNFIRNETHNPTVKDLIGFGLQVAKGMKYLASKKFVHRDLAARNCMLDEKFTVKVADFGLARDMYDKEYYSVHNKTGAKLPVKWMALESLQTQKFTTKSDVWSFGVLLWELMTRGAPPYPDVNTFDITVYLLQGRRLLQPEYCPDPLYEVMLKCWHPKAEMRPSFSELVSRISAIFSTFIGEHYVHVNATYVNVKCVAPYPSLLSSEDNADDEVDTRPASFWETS
Chain of RON (human) (Q04912 25-1400): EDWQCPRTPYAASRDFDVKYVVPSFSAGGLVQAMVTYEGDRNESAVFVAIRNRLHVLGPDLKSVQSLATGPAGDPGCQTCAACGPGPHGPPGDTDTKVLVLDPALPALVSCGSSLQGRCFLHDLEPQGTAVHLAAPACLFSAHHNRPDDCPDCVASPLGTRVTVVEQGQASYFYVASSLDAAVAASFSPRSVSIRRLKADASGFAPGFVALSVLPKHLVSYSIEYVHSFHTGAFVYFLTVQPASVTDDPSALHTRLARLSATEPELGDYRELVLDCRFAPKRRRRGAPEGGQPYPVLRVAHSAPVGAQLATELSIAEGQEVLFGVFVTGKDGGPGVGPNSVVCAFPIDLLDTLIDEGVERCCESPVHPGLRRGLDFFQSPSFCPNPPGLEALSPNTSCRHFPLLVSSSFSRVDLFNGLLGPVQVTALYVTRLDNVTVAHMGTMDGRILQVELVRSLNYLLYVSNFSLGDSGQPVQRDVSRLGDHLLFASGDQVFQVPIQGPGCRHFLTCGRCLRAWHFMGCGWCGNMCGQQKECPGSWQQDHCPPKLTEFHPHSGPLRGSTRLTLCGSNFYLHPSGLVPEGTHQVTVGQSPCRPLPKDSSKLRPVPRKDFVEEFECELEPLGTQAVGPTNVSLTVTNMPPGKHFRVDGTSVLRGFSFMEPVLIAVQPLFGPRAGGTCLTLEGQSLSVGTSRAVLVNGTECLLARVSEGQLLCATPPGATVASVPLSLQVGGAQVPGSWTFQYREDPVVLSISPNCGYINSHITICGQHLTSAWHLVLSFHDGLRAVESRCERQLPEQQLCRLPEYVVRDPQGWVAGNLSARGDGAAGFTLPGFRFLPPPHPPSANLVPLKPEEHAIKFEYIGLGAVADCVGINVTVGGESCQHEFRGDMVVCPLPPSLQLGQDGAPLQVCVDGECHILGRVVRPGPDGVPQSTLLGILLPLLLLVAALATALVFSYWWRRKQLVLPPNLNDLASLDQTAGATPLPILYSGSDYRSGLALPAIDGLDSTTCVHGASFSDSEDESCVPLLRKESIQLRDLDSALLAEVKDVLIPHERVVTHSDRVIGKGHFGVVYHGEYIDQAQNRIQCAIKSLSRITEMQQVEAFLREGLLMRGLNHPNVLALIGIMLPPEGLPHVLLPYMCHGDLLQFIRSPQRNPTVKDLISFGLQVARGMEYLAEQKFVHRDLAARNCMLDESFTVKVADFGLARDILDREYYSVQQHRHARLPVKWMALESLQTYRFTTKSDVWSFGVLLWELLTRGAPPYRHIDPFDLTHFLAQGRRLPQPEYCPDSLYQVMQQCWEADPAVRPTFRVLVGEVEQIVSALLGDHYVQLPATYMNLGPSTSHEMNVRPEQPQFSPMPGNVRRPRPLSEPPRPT

| IC50 [1] [nM] | IC50 [2] [nM] | SMILES |
| --- | --- | --- |
| 5000 to 20000 | 500 to 5000 | CCCCS(=O)(=O)Nc1cccc(-c2coc3c(O[C@H](C)c4c(Cl)ccc(F)c4Cl)c(N)ncc23)c1 [Example 246, Butane-1-sulfonic acid (3-{6-amino-7-[(R)-1-(2,6-dichloro-3-fluorophenyl)ethoxy]-furo[3,2-c]pyridin-3-yl}phenyl)amide] |
| 500 to 5000 | < 500 | CCN1CCC(n2cc(-c3coc4c(O[C@H](C)c5c(Cl)ccc(F)c5Cl)c(N)ncc34)cn2)CC1 [Example 278, 7-[(1R)-1-(2,6-Dichloro-3-fluorophenyl)ethoxy]-3-[1-(1-ethylpiperidin-4-yl)-1H-pyrazol-4-yl]furo[3,2-c]pyridin-6-amine] |
| < 500 | < 500 | C[C@@H](Oc1c(N)ncc2c(C3=CCN(C(=O)CCCN(C)C)CC3)coc12)c1c(Cl)ccc(F)c1Cl [Example 20, 1-(4-{6-Amino-7-[(R)-1-(2,6-dichloro-3-fluorophenyl)-ethoxy]-furo[3,2-c]pyridin-3-yl}-3,6-dihydro-2H-pyridin-1-yl)-4-dimethylaminobutan-1-one] |
| < 500 | < 500 | C[C@@H]1CN(C(=O)N2CC=C(c3coc4c(O[C@H](C)c5c(Cl)ccc(F)c5Cl)c(N)ncc34)CC2)C[C@H](C)N1 (relative stereo) [Example 224, (4-{6-Amino-7-[(R)-1-(2,6-dichloro-3-fluorophenyl)ethoxy]-furo[3,2-c]pyridin-3-yl}-3,6-dihydro-2H-pyridin-1-yl)-((3R*,5S*)-3,5-dimethylpiperazin-1-yl)methanone] |
| 500 to 5000 | 500 to 5000 | CNS(=O)(=O)c1cccc(-c2coc3c(O[C@H](C)c4c(Cl)ccc(F)c4Cl)c(N)ncc23)c1 [Example 83, 3-{6-Amino-7-[(R)-1-(2,6-dichloro-3-fluorophenyl)ethoxy]-furo[3,2-c]pyridin-3-yl}-N-methylbenzenesulfonamide] |
| 500 to 5000 | 500 to 5000 | COC(=O)c1ccc(C(C)Oc2c(N)ncc3c(-c4cnn(C5CCNCC5)c4)coc23)cc1 (stereo not shown) [Example 422, 4-{1-[6-Amino-3-(1-piperidin-4-yl-1H-pyrazol-4-yl)furo[3,2-c]pyridin-7-yloxy]ethyl}benzoic acid methyl ester] |
| < 500 | < 500 | C[C@@H](Oc1c(N)ncc2c(-c3cccc(C(=O)NCCN(C)C)c3)coc12)c1c(Cl)ccc(F)c1Cl [Example 74, 3-{6-Amino-7-[(R)-1-(2,6-dichloro-3-fluorophenyl)ethoxy]-furo[3,2-c]pyridin-3-yl}-N-(2-dimethylaminoethyl)benzamide] |
| 500 to 5000 | 500 to 5000 | COCCNC(=O)c1ccc(-c2coc3c(O[C@H](C)c4c(Cl)ccc(F)c4Cl)c(N)ncc23)cc1 [Example 285, 4-{6-Amino-7-[(R)-1-(2,6-dichloro-3-fluorophenyl)ethoxy]furo[3,2-c]pyridin-3-yl}-N-(2-methoxyethyl)benzamide] |
| 500 to 5000 | < 500 | Cc1ccccc1C(C)Oc1c(N)ncc2c(-c3cnn(C4CCNCC4)c3)coc12 (stereo not shown) [Example 342, 3-(1-Piperidin-4-yl-1H-pyrazol-4-yl)-7-(1-o-tolylethoxy)furo[3,2-c]pyridin-6-ylamine] |

| SMILES | IC50 [1] [nM] | IC50 [2] [nM] |
| --- | --- | --- |
| C[C@@H](Oc1c(N)ncc2c(C3=CCN(CC(=O)N(C)C)CC3)coc12)c1c(Cl)ccc(F)c1Cl [Example 200, 2-(4-{6-Amino-7-[(R)-1-(2,6-dichloro-3-fluorophenyl)ethoxy]-furo[3,2-c]pyridin-3-yl}-3,6-dihydro-2H-pyridin-1-yl)-N,N-dimethylacetamide] | 500 to 5000 | < 500 |
| CC(C)CN1CC=C(c2coc3c(O[C@H](C)c4c(Cl)ccc(F)c4Cl)c(N)ncc23)CC1 [Example 41, 7-[(R)-1-(2,6-Dichloro-3-fluorophenyl)-ethoxy]-3-(1-isobutyl-1,2,3,6-tetrahydropyridin-4-yl)-furo[3,2-c]pyridin-6-ylamine] | < 500 | < 500 |
